Test system: Mus musculus
Experiment: Immunostimulant activity after subcutaneous administration using mouse protection assay
Assay type: functional
Conditions: sc, read-out: MED

Structure (SMILES)	minimal effective dose [mg/kg]
Nc1ccc2nc(-c3ccccc3)cc(NC3CCCCC3)c2c1	> 100
Nc1ccc2nc(-c3ccccc3)cc(Nc3ccc(F)c(F)c3)c2c1	6.25
CC(=O)Nc1ccc2nc(C)cc(Nc3ccc(OCC4CCCCC4)cc3)c2c1	12.5
Cc1cc(Nc2ccc(OCC3CCCCC3)cc2)c2cc(N)ccc2n1	6.25
Nc1ccc2nccc(Nc3ccc(OCC4CCCCC4)cc3)c2c1	12.5
Nc1ccc2nc(-c3ccccc3)cc(Nc3ccc(OCC4CCCCC4)cc3)c2c1	5.6
Cc1cc(Nc2ccc(OCC3CCCCC3)cc2)c2cc(NC(N)=O)ccc2n1	50
CCOc1ccc(Nc2ccnc3ccc(N)cc23)cc1	6.25
Cc1cc(Nc2ccc(F)c(F)c2)c2cc(N)ccc2n1	12.5
CC(=O)Nc1ccc2nccc(Nc3ccc(OCC4CCCCC4)cc3)c2c1	6.25
CS(=O)(=O)Nc1ccc2nc(-c3ccccc3)cc(Nc3ccc(OCC4CCCCC4)cc3)c2c1	12.5
O=[N+]([O-])c1ccc2nc(-c3ccccc3)cc(Nc3ccc(Cl)cc3)c2c1	> 50
Nc1ccc2nc(-c3ccccc3)cc(Nc3ccc(Cl)cc3)c2c1	5.6
CCCCOc1ccc(Nc2ccnc3ccc(N)cc23)cc1	25
O=[N+]([O-])c1ccc2nc(-c3ccccc3)cc(Nc3ccc(OCC4CCCCC4)cc3)c2c1	> 50
NC(=O)Nc1ccc2nc(-c3ccccc3)cc(Nc3ccc(OCC4CCCCC4)cc3)c2c1	6.25

From ChEMBL document CHEMBL1152091, “The synthesis and identification of 4,6-diaminoquinoline derivatives as potent immunostimulants” (1992)
